The target in assay [1] is hHDAC2 (Homo sapiens (Human), UniProt Q92769). Nature of the assay: hHDAC2 inhibition protocol. The following applies: read-out: IC50 (nM) of enzyme activity HDAC2; selectivity table.
Procedure: (§1) After enzymatic reactions, reaction was stopped by adding 5 μl of 10 μM solution of a known inhibitor. The fluorescent signal of substrate and product was measured by means of microfluidics mobility assay in a EZ Reader II equipment. The percentage of conversion of substrate into product was calculated by the equipment software based on the area of the peaks.
(§2) The percentage of conversion data were analyzed using the computer software, Graphpad Prism. In the absence of the compound, the conversion (Ct) in each data set was defined as 100% activity. In the absence of HDAC, the conversion (Cb) in each data set was defined as 0% activity. The percent activity in the presence of each compound was calculated according to the following equation: % inhibition=(Ct−C)/(Ct−Cb), where C=the percentage of conversion in the presence of the compound.
(§3) The values of % inhibition versus a series of compound concentrations were then plotted using non-linear regression analysis of Sigmoidal dose-response curve generated with the equation Y=B+(T−B)/1+10((Log EC50−X)×Hill Slope), where Y=percent inhibition, B=minimum percent inhibition, T=maximum percent inhibition, X=logarithm of compound and Hill Slope=slope factor or Hill coefficient. The IC50 value was determined by the concentration causing a half-maximal percent activity.
The buffer assay used in the inhibition hHDAC2 assay is: Hepes 50 mM, KCl 100 mM, Tween 20 0.001%, BSA 0.01%; pH=7.4.
The target of assay [2] is hHDAC3 (Homo sapiens (Human), UniProt O15379). The assay can be described thus: hHDAC3 inhibition protocol. The following applies: read-out: IC50 (nM) of enzyme activity HDAC3; selectivity table.
Procedure: as §1, §2, §3
The buffer assay used in the inhibition hHDAC3 assay is: Hepes 50 mM, KCl 100 mM, Tween 20 0.001%, BSA 0.01%; pH=7.4.
In assay [3] the target is hHDAC1 (Homo sapiens (Human), UniProt Q13547). The assay can be described thus: hHDAC1 inhibition protocol. The following applies: read-out: IC50 (nM) of enzyme activity HDAC1; selectivity table.
Procedure: as §1, §2, §3
The buffer assay used in the inhibition hHDAC1 assay is: Hepes 50 mM, KCl 100 mM, Tween 20 0.001%, BSA 0.01%; pH=7.4.
In assay [4] the target is hHDAC6 (Homo sapiens (Human), UniProt Q9UBN7). The assay can be described thus: HDAC6 inhibition protocol. The following applies: read-out: IC50 (nM) of enzyme activity HDAC6.
Procedure: as §1, §2, §3
The buffer assay used in the inhibition hHDAC6 assay is: Hepes 50 mM, KCl 100 mM, Tween 20 0.001%, BSA 0.01%; pH=7.4.
Assay [5] concerns the target hHDAC5 (Homo sapiens (Human), UniProt Q9UQL6). The assay can be described thus: hHDAC5 inhibition protocol. The note with it: read-out: IC50 (nM) of enzyme activity HDAC5; selectivity table.
Procedure: as §1, §2, §3
The buffer assay used in the inhibition hHDAC5 assay is: Hepes 50 mM, KCl 100 mM, Tween 20 0.001%, BSA 0.01%; pH=7.4.
The target in assay [6] is hHDAC8 (Homo sapiens (Human), UniProt Q9BY41). Nature of the assay: hHDAC8 inhibition protocol. The note with it: read-out: IC50 (nM) of enzyme activity HDAC8; selectivity table.
Procedure: as §1, §2, §3
The buffer assay used in the inhibition hHDAC8 assay is: Hepes 50 mM, KCl 100 mM, Tween 20 0.001%, BSA 0.01%; pH=7.4.
Assay [7] addresses hHDAC9 (Homo sapiens (Human), UniProt Q9UKV0). Nature of the assay: hHDAC9 inhibition protocol. The note with it: read-out: IC50 (nM) of enzyme activity HDAC9; selectivity table.
Procedure: as §1, §2, §3
The buffer assay used in the inhibition hHDAC9 assay is: Hepes 50 mM, KCl 100 mM, Tween 20 0.001%, BSA 0.01%; pH=7.4.
Assay [8] has as its target hHDAC10 (Homo sapiens (Human), UniProt Q969S8). Nature of the assay: HDAC10 inhibition protocol. The note with it: read-out: IC50 (nM) of enzyme activity HDAC10; selectivity table.
Procedure: as §1, §2, §3
The buffer assay used in the inhibition hHDAC10 assay is: Hepes 50 mM, KCl 100 mM, Tween 20 0.001%, BSA 0.01%; pH=7.4.
In assay [9] the target is hHDAC4 (Homo sapiens (Human), UniProt P56524). The assay can be described thus: hHDAC4 inhibition protocol. The note with it: read-out: IC50 (nM) of enzyme activity HDAC4; selectivity table.
Procedure: as §1, §2, §3
The buffer assay used in the inhibition hHDAC4 assay is: Hepes 50 mM, KCl 100 mM, Tween 20 0.001%, BSA 0.01%; pH=7.4.
Assay [10] deals with hHDAC7 (Homo sapiens (Human), UniProt Q8WUI4). The assay can be described thus: hHDAC7 inhibition protocol. The following applies: read-out: IC50 (nM) of enzyme activity HDAC7; selectivity table.
Procedure: The fluorescent signal of substrate and product was measured by means of microfluidics mobility assay in a EZ Reader II equipment. The percentage of conversion of substrate into product was calculated by the equipment software based on the area of the peaks.
as §2, §3
The buffer assay used in the inhibition hHDAC7 assay is: Hepes 50 mM, KCl 100 mM, Tween 20 0.001%, BSA 0.01%; pH=7.4.
Setting [11] is: hHDAC6 1.20 nM, Acetylated Peptide A 2 μM, 1 hour at RT.

Like-named read-outs stand apart in the source and are kept apart here.

hHDAC4, sequence (P56524 whole entry): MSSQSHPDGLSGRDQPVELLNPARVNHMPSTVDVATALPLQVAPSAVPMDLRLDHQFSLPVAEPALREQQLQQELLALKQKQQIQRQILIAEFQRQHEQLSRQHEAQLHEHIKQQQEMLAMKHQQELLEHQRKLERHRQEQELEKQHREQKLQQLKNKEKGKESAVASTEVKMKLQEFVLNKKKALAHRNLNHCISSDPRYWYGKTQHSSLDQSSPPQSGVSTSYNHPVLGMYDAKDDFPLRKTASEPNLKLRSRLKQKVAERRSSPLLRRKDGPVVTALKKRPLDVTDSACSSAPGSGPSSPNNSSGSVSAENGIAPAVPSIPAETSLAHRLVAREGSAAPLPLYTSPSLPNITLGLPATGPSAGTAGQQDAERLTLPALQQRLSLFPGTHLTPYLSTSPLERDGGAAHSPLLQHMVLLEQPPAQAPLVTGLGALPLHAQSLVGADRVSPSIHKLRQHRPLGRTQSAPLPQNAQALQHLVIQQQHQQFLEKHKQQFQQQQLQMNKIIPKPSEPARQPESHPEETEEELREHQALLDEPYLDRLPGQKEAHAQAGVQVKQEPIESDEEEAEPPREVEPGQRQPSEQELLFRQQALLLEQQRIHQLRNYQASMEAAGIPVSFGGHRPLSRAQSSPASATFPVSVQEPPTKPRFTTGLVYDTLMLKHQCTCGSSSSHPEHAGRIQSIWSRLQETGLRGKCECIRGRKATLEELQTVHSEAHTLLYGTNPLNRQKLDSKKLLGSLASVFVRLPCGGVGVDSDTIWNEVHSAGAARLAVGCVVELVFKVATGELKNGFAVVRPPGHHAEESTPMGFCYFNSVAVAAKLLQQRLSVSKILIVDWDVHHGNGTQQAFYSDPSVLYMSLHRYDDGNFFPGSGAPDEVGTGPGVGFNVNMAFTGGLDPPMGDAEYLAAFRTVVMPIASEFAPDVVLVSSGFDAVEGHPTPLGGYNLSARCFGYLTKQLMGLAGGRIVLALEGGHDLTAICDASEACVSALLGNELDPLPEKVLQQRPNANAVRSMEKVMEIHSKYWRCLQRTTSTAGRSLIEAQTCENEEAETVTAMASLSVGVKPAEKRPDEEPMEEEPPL
hHDAC5, sequence (Q9UQL6 whole entry): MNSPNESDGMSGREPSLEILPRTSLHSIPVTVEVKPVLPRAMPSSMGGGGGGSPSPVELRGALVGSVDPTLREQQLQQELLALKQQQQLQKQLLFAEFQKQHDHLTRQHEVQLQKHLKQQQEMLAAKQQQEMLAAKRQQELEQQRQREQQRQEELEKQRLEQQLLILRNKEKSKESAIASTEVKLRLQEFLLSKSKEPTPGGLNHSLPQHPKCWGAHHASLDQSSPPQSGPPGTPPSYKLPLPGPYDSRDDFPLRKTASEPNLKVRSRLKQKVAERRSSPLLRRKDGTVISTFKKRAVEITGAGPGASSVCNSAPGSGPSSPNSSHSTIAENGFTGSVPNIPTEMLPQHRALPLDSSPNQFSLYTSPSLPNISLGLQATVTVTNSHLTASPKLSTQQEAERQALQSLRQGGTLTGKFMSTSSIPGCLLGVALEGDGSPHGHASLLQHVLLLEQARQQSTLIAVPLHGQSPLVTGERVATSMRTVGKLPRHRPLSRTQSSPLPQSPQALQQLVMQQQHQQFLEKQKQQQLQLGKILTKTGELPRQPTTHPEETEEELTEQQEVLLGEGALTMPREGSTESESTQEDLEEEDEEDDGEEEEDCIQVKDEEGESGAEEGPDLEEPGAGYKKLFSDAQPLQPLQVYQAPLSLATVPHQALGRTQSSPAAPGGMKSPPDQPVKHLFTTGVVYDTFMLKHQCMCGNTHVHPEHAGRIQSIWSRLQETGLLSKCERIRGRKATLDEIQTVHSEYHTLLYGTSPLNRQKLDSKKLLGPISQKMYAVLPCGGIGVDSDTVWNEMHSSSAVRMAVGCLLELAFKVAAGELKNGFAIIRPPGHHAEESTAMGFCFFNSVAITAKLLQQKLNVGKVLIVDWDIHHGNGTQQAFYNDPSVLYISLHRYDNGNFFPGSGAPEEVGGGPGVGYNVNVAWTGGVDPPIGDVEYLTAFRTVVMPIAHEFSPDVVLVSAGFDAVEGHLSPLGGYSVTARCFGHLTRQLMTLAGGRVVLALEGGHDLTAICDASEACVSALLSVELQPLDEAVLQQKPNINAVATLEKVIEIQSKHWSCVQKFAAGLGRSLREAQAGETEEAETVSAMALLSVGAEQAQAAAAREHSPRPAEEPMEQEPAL
hHDAC3, sequence (O15379 whole entry): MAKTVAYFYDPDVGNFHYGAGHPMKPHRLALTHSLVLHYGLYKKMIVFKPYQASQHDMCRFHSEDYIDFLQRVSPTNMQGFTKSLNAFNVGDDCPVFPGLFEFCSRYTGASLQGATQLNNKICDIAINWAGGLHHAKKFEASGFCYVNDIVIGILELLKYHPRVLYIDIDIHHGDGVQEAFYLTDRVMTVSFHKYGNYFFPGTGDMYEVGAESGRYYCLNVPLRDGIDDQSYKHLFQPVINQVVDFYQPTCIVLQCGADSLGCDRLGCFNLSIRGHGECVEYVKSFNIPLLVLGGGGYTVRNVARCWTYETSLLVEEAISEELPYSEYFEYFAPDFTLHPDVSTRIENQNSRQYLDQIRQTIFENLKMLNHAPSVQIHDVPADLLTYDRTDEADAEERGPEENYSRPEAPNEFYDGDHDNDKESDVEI
hHDAC3, sequence (Q9Y618 395-489 partner): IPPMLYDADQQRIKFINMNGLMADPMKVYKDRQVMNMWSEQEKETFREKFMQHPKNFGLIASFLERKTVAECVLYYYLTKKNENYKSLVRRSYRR
hHDAC8, sequence (Q9BY41 whole entry): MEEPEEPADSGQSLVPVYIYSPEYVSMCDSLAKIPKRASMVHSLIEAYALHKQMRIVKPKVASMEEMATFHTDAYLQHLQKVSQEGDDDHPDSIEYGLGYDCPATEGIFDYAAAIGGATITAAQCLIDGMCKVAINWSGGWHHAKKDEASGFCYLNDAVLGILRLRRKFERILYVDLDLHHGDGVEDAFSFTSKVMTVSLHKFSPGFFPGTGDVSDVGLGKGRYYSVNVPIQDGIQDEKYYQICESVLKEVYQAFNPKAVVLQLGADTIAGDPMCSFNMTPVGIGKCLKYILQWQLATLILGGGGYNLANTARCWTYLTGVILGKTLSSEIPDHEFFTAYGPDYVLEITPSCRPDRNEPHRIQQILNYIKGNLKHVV
hHDAC6, sequence (Q9UBN7 whole entry): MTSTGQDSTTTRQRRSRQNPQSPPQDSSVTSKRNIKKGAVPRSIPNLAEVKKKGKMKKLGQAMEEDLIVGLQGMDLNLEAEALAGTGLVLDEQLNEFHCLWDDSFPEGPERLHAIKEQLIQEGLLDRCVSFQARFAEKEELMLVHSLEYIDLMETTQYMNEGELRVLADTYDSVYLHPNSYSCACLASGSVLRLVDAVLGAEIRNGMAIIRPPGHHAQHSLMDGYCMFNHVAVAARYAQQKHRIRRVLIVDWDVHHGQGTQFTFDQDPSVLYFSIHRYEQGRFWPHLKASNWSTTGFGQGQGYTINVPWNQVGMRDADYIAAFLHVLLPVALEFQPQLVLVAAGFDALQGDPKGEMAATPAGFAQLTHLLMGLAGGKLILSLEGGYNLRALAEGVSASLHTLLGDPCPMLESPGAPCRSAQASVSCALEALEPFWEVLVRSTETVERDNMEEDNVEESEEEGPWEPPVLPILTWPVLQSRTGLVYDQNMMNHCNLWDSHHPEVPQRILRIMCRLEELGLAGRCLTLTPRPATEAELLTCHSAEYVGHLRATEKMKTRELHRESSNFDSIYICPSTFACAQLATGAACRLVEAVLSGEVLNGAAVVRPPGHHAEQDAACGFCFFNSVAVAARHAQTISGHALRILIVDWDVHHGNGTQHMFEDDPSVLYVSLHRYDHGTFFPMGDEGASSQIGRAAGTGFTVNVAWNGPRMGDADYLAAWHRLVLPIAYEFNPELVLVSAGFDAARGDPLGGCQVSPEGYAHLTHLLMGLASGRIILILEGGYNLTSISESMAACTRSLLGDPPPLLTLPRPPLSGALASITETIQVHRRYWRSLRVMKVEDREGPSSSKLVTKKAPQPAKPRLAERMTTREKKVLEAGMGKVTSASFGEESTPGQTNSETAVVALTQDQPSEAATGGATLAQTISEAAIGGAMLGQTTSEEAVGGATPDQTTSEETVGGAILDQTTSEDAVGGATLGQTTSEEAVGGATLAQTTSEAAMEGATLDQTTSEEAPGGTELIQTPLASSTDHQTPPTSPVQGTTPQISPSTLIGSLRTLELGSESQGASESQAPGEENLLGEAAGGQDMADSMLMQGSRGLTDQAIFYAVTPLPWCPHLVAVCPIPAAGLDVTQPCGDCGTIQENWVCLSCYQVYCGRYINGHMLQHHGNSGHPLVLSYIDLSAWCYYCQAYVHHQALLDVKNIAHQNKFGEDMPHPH
hHDAC1, sequence (Q13547 whole entry): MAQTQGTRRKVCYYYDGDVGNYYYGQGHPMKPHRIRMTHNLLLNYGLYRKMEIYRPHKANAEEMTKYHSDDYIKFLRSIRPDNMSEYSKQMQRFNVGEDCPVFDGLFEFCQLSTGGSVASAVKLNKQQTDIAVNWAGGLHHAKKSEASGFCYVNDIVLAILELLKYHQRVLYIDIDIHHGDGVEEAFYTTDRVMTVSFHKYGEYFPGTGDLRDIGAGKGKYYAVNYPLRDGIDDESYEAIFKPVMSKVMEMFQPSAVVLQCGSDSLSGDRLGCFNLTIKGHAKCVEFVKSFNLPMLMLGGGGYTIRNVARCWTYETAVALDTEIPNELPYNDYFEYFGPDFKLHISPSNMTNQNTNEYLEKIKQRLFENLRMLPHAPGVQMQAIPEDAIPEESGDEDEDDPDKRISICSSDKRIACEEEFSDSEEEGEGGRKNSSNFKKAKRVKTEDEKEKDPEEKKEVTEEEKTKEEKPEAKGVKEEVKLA

Consider `FC(F)c1nnc(-c2ccc(Cn3cc4ccccc4n3)cc2)o1` [Example 7, 2-(4-((2H-indazol-2-yl)methyl)phenyl)-5-(difluoromethyl)-1,3,4-oxadiazole], for which the half-inhibitory concentration (IC50) in assay [1] was > 10000 nM; in [2], > 10000 nM; in [3], > 10000 nM; in assay [4] (setting [11]), 365 nM; in assay [4] (selectivity table), 365 nM; in [5] it was > 10000 nM. Moreover, the IC50 in assay [6], in assay [7], in assay [8], in assay [9] and in assay [10] was > 10000 nM throughout.
Turning to `FC(F)c1nnc(-c2ccc(Cn3nnc4ccccc43)cc2)o1` [Example 11, 2-(4-((1H-benzo[d][1,2,3]triazol-1-yl)methyl)phenyl)-5-(difluoromethyl)-1,3,4-oxadiazole], the 50% inhibitory concentration (IC50) in assay [1] was > 10000 nM; in [2], > 10000 nM; in assay [3], > 10000 nM; in [4] (setting [11]), 171 nM; in assay [4] (selectivity table), 171 nM; in assay [5], > 10000 nM. For the same compound, the IC50 in assay [6], in [7], in assay [8], in assay [9] and in assay [10] was > 10000 nM throughout.
Take `FC(F)c1nnc(-c2ccc(Cn3cnc4cc(Cl)c(Cl)cc43)nc2)o1` [Example 22, 2-(6-((5,6-dichloro-1H-benzo[d]imidazol-1-yl)methyl)pyridin-3-yl)-5-(difluoromethyl)-1,3,4-oxadiazole]: the IC50 in [1] is > 10000 nM; in assay [2], > 10000 nM; in assay [3], > 10000 nM; in assay [4] (setting [11]), 22.4 nM; in assay [4] (selectivity table) it was 22.4 nM; in [5], > 10000 nM. The IC50 was > 10000 nM in [6]; 6520 nM in assay [7]; > 10000 nM in [8]; 2400 nM in assay [9]; 9400 nM in assay [10].
Take `FC(F)c1nnc(-c2ccc(Cn3nnc4cc(Cl)c(Cl)cc43)nc2)o1` [Example 24, 2-(6-((5,6-dichloro-1H-benzo[d][1,2,3]triazol-1-yl)methyl)pyridin-3-yl)-5-(difluoromethyl)-1,3,4-oxadiazole]: the IC50 in assay [1] is > 10000 nM; in [2], > 10000 nM; in assay [3], > 10000 nM; in [4] (setting [11]), 29.5 nM; in assay [4] (selectivity table) it was 29.5 nM; in assay [5], > 10000 nM. The 50% inhibitory concentration (IC50) in [6] is > 10000 nM; in assay [7], 8620 nM; in [8], > 10000 nM; in assay [9], 8370 nM; in assay [10], > 10000 nM.
`FC(F)c1nnc(-c2ccc(Cn3nc4cc(Cl)c(Cl)cc4n3)nc2)o1` [Example 25, 2-(6-((5,6-dichloro-2H-benzo[d][1,2,3]triazol-2-yl)methyl)pyridin-3-yl)-5-(difluoromethyl)-1,3,4-oxadiazole]: the IC50 in assay [1] is > 10000 nM; in assay [2] it was > 10000 nM; in [3] it was > 10000 nM; in assay [4] (setting [11]), 29.8 nM; in assay [4] (selectivity table), 29.8 nM; in assay [5] it was > 10000 nM. In addition, the 50% inhibitory concentration (IC50) in assay [6], in [7], in assay [8], in assay [9] and in [10] was > 10000 nM in each case.
With `FC(F)c1nnc(-c2ccc(Cn3cc(-c4cc(Cl)cc(Cl)c4)nn3)nc2)o1` [Example 47, 2-(6-((4-(3,5-dichlorophenyl)-1H-1,2,3-triazol-1-yl)methyl)pyridin-3-yl)-5-(difluoromethyl)-1,3,4-oxadiazole], the IC50 in assay [4] (setting [11]) stood at 25.7 nM.
The same measure, in the same setting: as for `Fc1cccc(F)c1-c1cn(Cc2ccc(-c3nnc(C(F)F)o3)cn2)nn1` [Example 49, 2-(difluoromethyl)-5-(6-((4-(2,6-difluorophenyl)-1H-1,2,3-triazol-1-yl)methyl)pyridin-3-yl)-1,3,4-oxadiazole], the figure is 66.7 nM; as for `COc1cccc(-c2cn(Cc3ccc(-c4nnc(C(F)F)o4)cn3)nn2)c1` [Example 50], 43.5 nM.
On the same count and under the same terms, the result for `FC(F)c1nnc(-c2ccc(Cn3nnc(-c4ccccc4)c3Cl)cc2)o1` [Example 51, 2-(4-((5-chloro-4-phenyl-1H-1,2,3-triazol-1-yl)methyl)phenyl)-5-(difluoromethyl)-1,3,4-oxadiazole] reads 87.9 nM; that for `FC(F)c1nnc(-c2ccc(Cn3nnc(-c4ccccc4)c3Cl)nc2)o1` [Example 52, 2-(6-((5-chloro-4-phenyl-1H-1,2,3-triazol-1-yl)methyl)pyridin-3-yl)-5-(difluoromethyl)-1,3,4-oxadiazole], 48.4 nM.
On the same count and under the same terms, as for `FC(F)c1nnc(-c2ccc(Cn3nnc(-c4ccccc4Cl)c3Cl)nc2)o1` [Example 53, 2-(6-((5-chloro-4-(2-chlorophenyl)-1H-1,2,3-triazol-1-yl)methyl)pyridin-3-yl)-5-(difluoromethyl)-1,3,4-oxadiazole], the figure is 81.5 nM; as for `FC(F)c1nnc(-c2ccc(C(Cl)n3cc(-c4ccccc4)nn3)nc2)o1` (centres unmarked) [Example 55, 2-(6-(chloro(4-phenyl-1H-1,2,3-triazol-1-yl)methyl)pyridin-3-yl)-5-(difluoromethyl)-1,3,4-oxadiazole], 58.2 nM.
Turning to `Fc1cc(F)cc(-c2cn(Cc3ccc(-c4nnc(C(F)F)o4)cn3)nn2)c1` [Example 56, 2-(difluoromethyl)-5-(6-((4-(3,5-difluorophenyl)-1H-1,2,3-triazol-1-yl)methyl)pyridin-3-yl)-1,3,4-oxadiazole], the IC50 in assay [4] (setting [11]) is 66.5 nM.
As to `Fc1cc(-c2cn(Cc3ccc(-c4nnc(C(F)F)o4)cn3)nn2)cc(F)c1F` [Example 57, 2-(difluoromethyl)-5-(6-((4-(3,4,5-trifluorophenyl)-1H-1,2,3-triazol-1-yl)methyl)pyridin-3-yl)-1,3,4-oxadiazole], the IC50 in [4] (setting [11]) amounted to 149 nM.
Still for that read-out and setting: as for `FC(F)c1nnc(-c2ccc(Cn3c(C(F)(F)F)nc4cc(Cl)c(Cl)cc43)nc2)o1` [Example 58, 2-(6-((5,6-dichloro-2-(trifluoromethyl)-1H-benzo[d]imidazol-1-yl)methyl)pyridin-3-yl)-5-(difluoromethyl)-1,3,4-oxadiazole], the figure is 121 nM.
Still for that read-out and setting: the result for `Cc1cc2nnn(Cc3ccc(-c4nnc(C(F)F)o4)cn3)c2cc1C` [Example 59, 2-(difluoromethyl)-5-(6-((5,6-dimethyl-1H-benzo[d][1,2,3]triazol-1-yl)methyl)pyridin-3-yl)-1,3,4-oxadiazole] reads 85.1 nM; that for `Cc1nc2cc(Cl)c(Cl)cc2n1Cc1ccc(-c2nnc(C(F)F)o2)cn1` [Example 60, 2-(6-((5,6-dichloro-2-methyl-1H-benzo[d]imidazol-1-yl)methyl)pyridin-3-yl)-5-(difluoromethyl)-1,3,4-oxadiazole], 42.3 nM; that for `Cc1cc2ncn(Cc3ccc(-c4nnc(C(F)F)o4)cn3)c2cc1C` [Example 61, 2-(difluoromethyl)-5-(6-((5,6-dimethyl-1H-benzo[d]imidazol-1-yl)methyl)pyridin-3-yl)-1,3,4-oxadiazole], 187 nM.
The same measure, in the same setting: as for `FC(F)c1nnc(-c2ccc(Cn3cnc4ccc(Br)cc43)nc2)o1` [Example 62, 2-(6-((6-bromo-1H-benzo[d]imidazol-1-yl)methyl)pyridin-3-yl)-5-(difluoromethyl)-1,3,4-oxadiazole], the figure is 61.8 nM; as for `FC(F)c1nnc(-c2ccc(Cn3cnc4cc(Br)ccc43)nc2)o1` [Example 63, 2-(6-((5-bromo-1H-benzo[d]imidazol-1-yl)methyl)pyridin-3-yl)-5-(difluoromethyl)-1,3,4-oxadiazole], 48.3 nM.
In the case of `FC(F)c1nnc(-c2ccc(Cn3nnc4cc(Br)ccc43)nc2)o1` [Example 64, 2-(6-((5-bromo-1H-benzo[d][1,2,3]triazol-1-yl)methyl)pyridin-3-yl)-5-(difluoromethyl)-1,3,4-oxadiazole], the IC50 in [4] (setting [11]) stood at 48.7 nM.
`FC(F)c1nnc(-c2ccc(Cn3nnc4ccc(Br)cc43)nc2)o1` [Example 65, 2-(6-((6-bromo-1H-benzo[d][1,2,3]triazol-1-yl)methyl)pyridin-3-yl)-5-(difluoromethyl)-1,3,4-oxadiazole]: in assay [4] (setting [11]), the IC50 was 40.4 nM.
For the compound `FC(F)c1nnc(-c2ccc(Cn3nc4ccc(Br)cc4n3)nc2)o1` [Example 66, 2-(6-((5-bromo-2H-benzo[d][1,2,3]triazol-2-yl)methyl)pyridin-3-yl)-5-(difluoromethyl)-1,3,4-oxadiazole], in assay [4] (setting [11]), the half-maximal inhibitory concentration (IC50) was 33.3 nM.
On the same count and under the same terms, as for `Fc1ccccc1-c1nnn(Cc2ccc(-c3nnc(C(F)F)o3)cn2)c1Cl` [Example 67, 2-(6-((5-chloro-4-(2-fluorophenyl)-1H-1,2,3-triazol-1-yl)methyl)pyridin-3-yl)-5-(difluoromethyl)-1,3,4-oxadiazole], the figure is 67.4 nM.

One may read the IC50 as the midpoint of a concentration-inhibition curve.
